For 13 molecules, IC50, viability and Ki results are on record in ChEMBL document CHEMBL3351779, “New tetracyclic tacrine analogs containing pyrano[2,3-c]pyrazole: efficient synthesis, biological assessment and docking simulation study” (Eur J Med Chem, 2015).

pIC50, pKi: −log10 of the molar value.

For one test, the target named is Cholinesterase (Equus caballus, UniProt P81908).
Test [1] has as its target T1, Acetylcholinesterase (Electrophorus electricus, UniProt O42275).
Description: Inhibition of electric eel AChE using acetylthiocholine iodide as substrate preincubated for 10 mins followed by substrate addition by Ellman's method
Test [2] can be described thus: Neuroprotective activity against H2O2-induced cell death in rat PC12 cells assessed as cell viability at 10 uM after 24 hrs by MTT assay relative to control. It is filed as functional. The settings on record: PC-12, 24 h, read-out: Activity. A general note: Tetrazolium assays rely on reduction of a dye to a coloured formazan, in cell work by metabolically active cells.

Test [3] has as its target T1, Acetylcholinesterase. Nature of the test: Inhibition of electric eel AChE by Lineweaver-Burk plot.

Cholinesterase, sequence (P81908 whole entry): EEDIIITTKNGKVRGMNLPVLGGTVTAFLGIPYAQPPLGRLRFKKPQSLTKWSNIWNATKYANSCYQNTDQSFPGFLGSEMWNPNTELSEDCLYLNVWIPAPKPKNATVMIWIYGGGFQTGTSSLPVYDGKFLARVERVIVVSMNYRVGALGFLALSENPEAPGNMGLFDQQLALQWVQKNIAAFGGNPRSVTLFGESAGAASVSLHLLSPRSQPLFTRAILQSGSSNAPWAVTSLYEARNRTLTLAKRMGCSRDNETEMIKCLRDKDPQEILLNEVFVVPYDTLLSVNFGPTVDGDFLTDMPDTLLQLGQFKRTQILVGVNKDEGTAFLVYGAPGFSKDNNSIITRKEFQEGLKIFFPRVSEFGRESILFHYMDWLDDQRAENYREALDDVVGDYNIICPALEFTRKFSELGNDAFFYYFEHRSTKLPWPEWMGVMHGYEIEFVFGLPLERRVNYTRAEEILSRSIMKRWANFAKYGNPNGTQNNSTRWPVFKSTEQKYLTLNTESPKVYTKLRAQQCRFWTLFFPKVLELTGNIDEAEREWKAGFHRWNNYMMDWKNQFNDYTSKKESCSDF
T1 sequence (O42275 whole entry): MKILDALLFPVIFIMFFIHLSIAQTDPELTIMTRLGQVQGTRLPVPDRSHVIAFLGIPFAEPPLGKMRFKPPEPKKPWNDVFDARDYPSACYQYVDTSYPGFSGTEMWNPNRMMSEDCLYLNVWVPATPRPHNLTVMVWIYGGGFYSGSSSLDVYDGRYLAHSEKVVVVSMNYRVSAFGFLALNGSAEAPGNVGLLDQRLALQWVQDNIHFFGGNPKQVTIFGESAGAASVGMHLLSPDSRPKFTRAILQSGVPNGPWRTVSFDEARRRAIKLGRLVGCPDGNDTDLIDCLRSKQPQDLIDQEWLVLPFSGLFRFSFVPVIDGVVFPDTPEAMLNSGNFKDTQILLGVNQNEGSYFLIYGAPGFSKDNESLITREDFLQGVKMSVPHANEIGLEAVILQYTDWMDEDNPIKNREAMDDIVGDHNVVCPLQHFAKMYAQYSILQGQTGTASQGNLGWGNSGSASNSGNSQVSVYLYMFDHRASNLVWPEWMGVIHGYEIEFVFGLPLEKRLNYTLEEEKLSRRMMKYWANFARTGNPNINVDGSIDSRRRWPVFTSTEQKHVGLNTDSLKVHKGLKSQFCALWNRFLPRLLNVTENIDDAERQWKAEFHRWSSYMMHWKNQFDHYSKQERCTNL

With `Cc1[nH]nc2c1C(c1cccc3ccccc13)c1c(nc3c(c1N)CCCC3)O2` (racemic), the pIC50 (in general, the IC50 on a negative log10 scale, so that one unit is a factor of ten) on Cholinesterase is 4.82; on Acetylcholinesterase [1], 6.49.

On to `COc1ccc(OC)c(C2c3c(n[nH]c3C)Oc3nc4c(c(N)c32)CCCC4)c1` (racemic), for which the pIC50 on Cholinesterase was under 4.00; against Acetylcholinesterase [1] it was 6.30.

Turning to `Cc1[nH]nc2c1C(c1ccc(F)cc1)c1c(nc3c(c1N)CCCC3)O2` (racemic), the figures for the negative logarithm of the IC50 (pIC50) on Cholinesterase and on Acetylcholinesterase [1] were 4.60 and 6.09, respectively.

As for `Cc1ccc(C2c3c(n[nH]c3C)Oc3nc4c(c(N)c32)CCCC4)cc1` (racemic), the negative logarithm of the IC50 (pIC50) is 5.35 on Cholinesterase and 6.12 at Acetylcholinesterase [1].

Take `COc1cc(C2c3c(n[nH]c3C)Oc3nc4c(c(N)c32)CCCC4)cc(OC)c1OC` (racemic): the pIC50 on Cholinesterase was under 4.00; against Acetylcholinesterase [1], 5.66.

As for `O=c1c(O)c(-c2ccc(O)c(O)c2)oc2cc(O)cc(O)c12` [QUERCETIN], the viability at 10 µM in test [2] worked out at 51.6%.

As to `Cc1[nH]nc2c1C(c1cccc(Cl)c1Cl)c1c(nc3c(c1N)CCCC3)O2` (racemic), the negative-log IC50 (pIC50) on Cholinesterase is under 4.00; on Acetylcholinesterase [1], 6.06.

Turning to `Cc1[nH]nc2c1C(c1cccc([N+](=O)[O-])c1)c1c(nc3c(c1N)CCCC3)O2` (racemic), the negative logarithm of the IC50 (pIC50) is under 4.00 on Cholinesterase and 5.49 against Acetylcholinesterase [1].

In the case of `Cc1[nH]nc2c1C(c1cccs1)c1c(nc3c(c1N)CCCC3)O2` (racemic), the values for the pIC50 against Cholinesterase and on Acetylcholinesterase [1] were 4.80 and 6.14, respectively.

For the molecule `COc1ccccc1C1c2c(n[nH]c2C)Oc2nc3c(c(N)c21)CCCC3` (racemic), the pIC50 against Cholinesterase was under 4.00; at Acetylcholinesterase [1], under 5.00.

On to `Cc1[nH]nc2c1C(c1ccccc1F)c1c(nc3c(c1N)CCCC3)O2` (racemic), for which the pIC50 against Cholinesterase was 4.48; on Acetylcholinesterase [1] it was 6.23.

For `COc1ccc(C2c3c(n[nH]c3C)Oc3nc4c(c(N)c32)CCCC4)cc1` (racemic), the pIC50 against Cholinesterase is under 4.00; on Acetylcholinesterase [1], 6.51.

In the case of `COc1ccc(C2c3c(n[nH]c3C)Oc3nc4c(c(N)c32)CCCC4)cc1OC` (racemic), the viability at 10 µM in test [2] came out at 48.4%. In addition, the pIC50 on Cholinesterase is under 4.00; on Acetylcholinesterase [1], 6.72. For the same molecule, the negative-log Ki (pKi) (as a rule, the Ki on a negative log10 scale, so that one unit is a factor of ten) on Acetylcholinesterase [3] is 6.31.
